Experimental findings from ChEMBL document CHEMBL1158329, “Four new cytotoxic germacranolides from Carpesium divaricatum” (1997) are described below.

In brackets after ≈: the same amount, converted by molar mass.

What all share (assay type): functional
Common to all, as to details: read-out: ED50 (the source's name)

One assay concerns A549. Description: Cytotoxicity against human A549 cells by SRB assay. (The SRB assay estimates cell density from bound dye.)
Another assay relates to SK-OV-3. Nature of the assay: Cytotoxicity against human SKOV3 cells by SRB assay.
For a further assay, the system named is SK-MEL-2. Nature of the assay: Cytotoxicity against human SK-MEL-2 cells by SRB assay.
The subject of the next assay is XF498. Description: Cytotoxicity against human XF498 cells by SRB assay.
In the next assay the test system is HCT-15. Nature of the assay: Cytotoxicity against human HCT15 cells by SRB assay.

Regarding `C=C1C(=O)O[C@@H]2[C@@H]1[C@H](OC(=O)/C(C)=C\C)C(=O)[C@@H](C)C[C@H](O)C[C@](C)(O)[C@H]2OC(=O)C(C)CC` (stereo not given in full) [CARDIVIN A], the EC50 in the assay on A549 is 3.17 µg/mL (≈ 6.6 µM); with SK-OV-3, 1.47 µg/mL (≈ 3.06 µM); with SK-MEL-2, 1.16 µg/mL (≈ 2.41 µM); in the assay on XF498, 1.4 µg/mL (≈ 2.91 µM); with HCT-15, 1.28 µg/mL (≈ 2.66 µM).
The like results for `COc1cccc2c1C(=O)c1c(O)c3c(c(O)c1C2=O)C[C@@](O)(C(=O)CO)C[C@@H]3O[C@H]1C[C@H](N)[C@H](O)[C@H](C)O1` [DOXORUBICIN] were, in that order, 0.12 µg/mL (≈ 0.221 µM), 0.13 µg/mL (≈ 0.239 µM), 0.11 µg/mL (≈ 0.202 µM), 0.23 µg/mL (≈ 0.423 µM) and 2.4 µg/mL (≈ 4.42 µM).
Consider `C=C1C(=O)O[C@@H]2[C@@H]1[C@H](OC(=O)C(C)C)C(=O)[C@@H](C)C[C@H](O)C[C@](C)(O)[C@H]2OC(=O)C(C)C` [CARDIVIN D], for which the EC50 with A549 was 8.36 µg/mL (≈ 18.4 µM); with SK-OV-3 it was 3.78 µg/mL (≈ 8.32 µM); in the assay with SK-MEL-2, 1.88 µg/mL (≈ 4.14 µM); with XF498, 3.05 µg/mL (≈ 6.71 µM); in the assay on HCT-15, 3 µg/mL (≈ 6.6 µM).
For the compound `C=C1C(=O)O[C@@H]2[C@@H]1[C@H](OC(=O)C(C)CC)C(=O)[C@@H](C)C[C@H](O)C[C@](C)(O)[C@H]2OC(=O)C(C)C` (stereo not given in full) [CARDIVIN B], the EC50 was found to be 3.71 µg/mL (≈ 7.92 µM) with A549; 2.24 µg/mL (≈ 4.78 µM) in the assay with SK-OV-3; 1.45 µg/mL (≈ 3.09 µM) in the assay with SK-MEL-2; 1.69 µg/mL (≈ 3.61 µM) in the assay on XF498; 2.06 µg/mL (≈ 4.4 µM) in the assay on HCT-15.
Regarding `C=C1C(=O)O[C@@H]2[C@@H]1[C@H](OC(=O)C(C)C)C(=O)[C@@H](C)C[C@H](O)C[C@](C)(O)[C@H]2OC(=O)/C(C)=C\C` [CARDIVIN C], the EC50 with A549 amounted to 3.12 µg/mL (≈ 6.69 µM); in the assay on SK-OV-3 it was 1.6 µg/mL (≈ 3.43 µM); with SK-MEL-2, 1.08 µg/mL (≈ 2.31 µM); in the assay on XF498, 1.31 µg/mL (≈ 2.81 µM); with HCT-15 it was 1.38 µg/mL (≈ 2.96 µM).
